From EP0125052B1, “Dopaminergic carbostyrils and a process for preparing them” (SMITHKLINE BECKMAN CORPORATION, priority 1983, dated 1984)
Each block holds one molecule with its values, some of them ahead of it.

Experiments:
D2 = D2 (Oryctolagus cuniculus, UniProt G1T1Q0); experiment: cell-based
[1] = test system: spontaneously hypertensive rat (SHR); experiment: spontaneously hypertensive rat (SHR) protocol; type: in vivo
anesthetized dog = anesthetized dog protocol (renal dog screen) measuring renal and cardiovascular parameters; type: in vivo; parameters: decreased heart rate / arterial blood pressure: dose or concentration left out as unconfirmed
Source text: The prior art dopaminergic agent, dopamine, is used as a positive control.

Sequence of D2 (G1T1Q0 1-443): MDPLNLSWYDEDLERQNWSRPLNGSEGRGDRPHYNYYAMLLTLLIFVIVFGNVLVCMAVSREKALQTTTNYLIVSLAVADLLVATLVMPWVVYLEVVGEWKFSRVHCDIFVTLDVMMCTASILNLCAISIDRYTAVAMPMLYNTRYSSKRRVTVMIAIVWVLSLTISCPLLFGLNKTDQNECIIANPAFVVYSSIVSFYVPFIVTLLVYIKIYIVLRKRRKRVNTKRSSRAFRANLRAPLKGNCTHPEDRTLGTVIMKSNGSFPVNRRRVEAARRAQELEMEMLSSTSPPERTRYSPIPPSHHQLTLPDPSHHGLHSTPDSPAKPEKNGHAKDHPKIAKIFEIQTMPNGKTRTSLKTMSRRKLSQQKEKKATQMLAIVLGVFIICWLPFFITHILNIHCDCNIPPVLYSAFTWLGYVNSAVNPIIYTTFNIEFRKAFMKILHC

- EC50 (D2): 12 nM
SMILES: CCCN(CCc1ccc(O)cc1)CCc1ccc(O)c2[nH]c(=O)ccc12 [5-[N-n-propyl-N-(p-hydroxyphenethyl)aminoethyl)-8-hydroxycarbostyril]

SMILES: Cl.NCCc1ccc(O)c2[nH]c(=O)ccc12 [5-aminoethyl-8-hydroxycarbostyril hydrochloride]
- systolic blood pressure ([1]; SHR, 25 mg/kg intraperitoneally administered): lowered systolic blood pressure
- ED15 (anesthetized dog; Canis lupus familiaris, read-out: RVR-ED15): 1.8 µg/kg
- arterial blood pressure (anesthetized dog; by infusion, renal dog screen): -8%
- decreased heart rate (anesthetized dog; by infusion, renal dog screen): 22.5%

SMILES: CCCN(CCC)CCc1ccc(O)c2[nH]c(=O)ccc12 [5-di-n-propylaminoethyl-8-hydroxycarbostyril]
- systolic hypertension ([1]; rat test, 12.5, 25 and 50 mg/kg, i.p.): decreased systolic hypertension
- renal blood flow (anesthetized dog; dog protocol, 3 and 30 pg/kg/min infusion): increased renal blood flow
